The text below walks through data of ChEMBL document CHEMBL1129136, “Synthesis and evaluation of amino acid ester prodrugs of penciclovir” (Bioorg Med Chem Lett, 1996).

Data set [1] in a line: Half life was measured at pH 7.4 and at 37 degree Celsius temperature. Type of data set: ADME.
For the next data set, the system named is Mus musculus. The experiment in a line: Compound was tested to determine the total amount of penciclovir recovered in the urine over a 48-h period after a single oral dose of 0.2 mmol/kg. Type of data set: functional.
Data set [2] in a line: Half life was measured at pH 8.0 and at 37 degree Celsius temperature. Type of data set: ADME.
Data set [3] in a line: Half life was measured at pH 1.0 and at 37 degree Celsius temperature. Type of data set: ADME.
The nature of data set [4]: Half life was measured […] at 37 degree Celsius temperature by HPLC assay using a c18 reversed-phase column. Type of data set: ADME.
The test system of a further data set is Vero. The experiment in a line: Compound was tested for its antiviral activity against HSV-1(KOS strain) in vero cells. Type of data set: functional, cell-based. Conditions: Chlorocebus sabaeus.

SMILES strings stand for the structures. A value given as a limit tells only on which side of the number the result lay.

Consider `CCCC(=O)OCC(CCn1cnc2c(O)nc(N)nc21)COC(=O)[C@@H](N)C(C)C.Cl` (some centres undefined), for which the half-life in data set [1] is 18.4 h; in data set [2], 14.1 h; in data set [3], 33.3 h; in data set [4], 122 h. Moreover, the “Dose (urinary recovery)” value in the data set with Mus musculus worked out at 29%. The compound also came in with a concentration for a half-maximal effect (EC50) in the data set on Vero of 42 µM.
For `CC(C)C(=O)OCC(CCn1cnc2c(O)nc(N)nc21)COC(=O)[C@@H](N)C(C)C.Cl` (some centres undefined), the half-life in data set [1] was 19.1 h; in data set [2], 14.4 h; in data set [3], 47.5 h; in data set [4], 120 h. For the same compound, the “Dose (urinary recovery)” value in the data set with Mus musculus stood at 20%. Further, the EC50 in the data set on Vero is greater than 100 µM.
Regarding `CCC(C)[C@H](N)C(=O)OCC(CCn1cnc2c(O)nc(N)nc21)COC(=O)[C@@H](N)C(C)CC.Cl.Cl` (some centres undefined), the half-life in data set [1] is 11.4 h; in data set [2] it was 9.8 h; in data set [3], greater than 168 h; in data set [4], 52.9 h. Besides, the “Dose (urinary recovery)” value in the data set on Mus musculus is recorded as 9%. The compound further gave a concentration giving a half-maximal response (EC50) in the data set with Vero of 42.3 µM.
As to `CC(C)[C@H](N)C(=O)OCC(CCn1cnc2c(O)nc(N)nc21)COC(=O)[C@@H](N)C(C)C.Cl.Cl`, the half-life in data set [1] was 6.7 h; in data set [2], 6 h; in data set [3], greater than 168 h; in data set [4], 30.9 h. The “Dose (urinary recovery)” value in the data set on Mus musculus was 25%. This compound showed an EC50 with Vero of 25.5 µM.
For `CCC(C)[C@H](N)C(=O)OCC(CCn1cnc2c(O)nc(N)nc21)COC(C)=O.Cl` (some centres undefined), the half-life was 24.8 h in data set [1], 19.1 h in data set [2], 19.4 h in data set [3] and 105 h in data set [4]. The “Dose (urinary recovery)” value in the data set with Mus musculus worked out at 15%. In the data set with Vero, this compound yielded a concentration giving a half-maximal response (EC50) greater than 100 µM.
Turning to `CCC(=O)OCC(CCn1cnc2c(O)nc(N)nc21)COC(=O)[C@@H](N)C(C)C.Cl` (some centres undefined), the half-life in data set [1] was 17.3 h; in data set [2], 13.6 h; in data set [3], 19.2 h; in data set [4], 104 h. In the data set with Mus musculus, the “Dose (urinary recovery)” value was 25%. In the data set with Vero, this compound yielded a 50% effective concentration (EC50) greater than 100 µM.
As for `CC(=O)OCC(CCn1cnc2c(O)nc(N)nc21)COC(=O)[C@@H](N)C(C)C.Cl` (some centres undefined), the half-life in data set [1] was 13.2 h; in data set [2] it was 13.2 h; in data set [3], 19.4 h; in data set [4], 108 h. Moreover, the “Dose (urinary recovery)” value with Mus musculus was found to be 34%. The compound further returned an EC50 in the data set with Vero greater than 100 µM.
For `CCC(C)[C@H](N)C(=O)OCC(CCn1cnc2c(O)nc(N)nc21)COC(=O)C(C)C.Cl` (some centres undefined), the half-life in data set [1] is 24.9 h; in data set [2], 19.4 h; in data set [3], 46.5 h; in data set [4] it was 83.5 h. Further, in the data set on Mus musculus, the “Dose (urinary recovery)” value was found to be 13%. Besides, the EC50 in the data set with Vero is greater than 100 µM.
In the case of `CCCC(=O)OCC(CCn1cnc2c(O)nc(N)nc21)COC(=O)[C@@H](N)C(C)CC.Cl` (some centres undefined), the half-life is 27 h in data set [1], 19.9 h in data set [2], 34 h in data set [3] and 93.7 h in data set [4]. In the data set with Mus musculus, the “Dose (urinary recovery)” value is 19%. Moreover, in the data set with Vero, the concentration for a half-maximal effect (EC50) is 24.2 µM.
As to `CCC(=O)OCC(CCn1cnc2c(O)nc(N)nc21)COC(=O)[C@@H](N)C(C)CC.Cl` (some centres undefined), the half-life was 25 h in data set [1], 19.9 h in data set [2], 19 h in data set [3] and 83.5 h in data set [4]. The “Dose (urinary recovery)” value in the data set with Mus musculus is given as 20%. Further, the 50% effective concentration (EC50) in the data set on Vero is greater than 100 µM.
In the case of `CC(=O)OCC(CCn1cnc2cnc(N)nc21)COC(C)=O` [FAMCICLOVIR], in the data set on Mus musculus, the “Dose (urinary recovery)” value came out at 33%. The 50% effective concentration (EC50) in the data set on Vero was greater than 100 µM.
Consider `Nc1nc(O)c2ncn(CCC(CO)CO)c2n1` [PENCICLOVIR], for which the “Dose (urinary recovery)” value in the data set on Mus musculus was 9%. For the same compound, the EC50 in the data set on Vero was determined as 8.1 µM.

By half-life is commonly meant the time in which the quantity being followed falls by half. By EC50 is commonly meant the concentration at which the effect is half-maximal. Lower therefore signals higher potency in that assay.
